System: healthy subjects
Test: Phase 1 healthy volunteer study, single oral dose: treatment-emergent adverse events
Assay type: in vivo, human
Description: A Phase 1 randomized, double-blind, placebo-controlled study to evaluate the effect of psilocybin on cognitive and emotional processing as compared to placebo in healthy volunteers was conducted. The study investigated the short-term (Day 7) and long-term (Day 28) effects of moderate (10 mg) and high doses (25 mg) of psilocybin on key domains of cognition, such as episodic memory, attention, working and spatial memory, social cognition and elements of executive function, including cognitive flexibility.
90 healthy subjects were studied. Approximately 50% of the subjects were psilocybin-naïve. For subjects with prior psilocybin experience, the last exposure was at least 1 year prior to the signing of the Informed Consent Form (ICF). Approximately 50% of the subjects were female. Subjects were stratified by sex and age (18-35 years old; >35 years old).
Each subject was assigned 1 treatment bottle containing 5 capsules packaged in a double-blind fashion, depending on the randomized treatment arm, the bottle contained one of the following: • a. Psilocybin 10 mg: 2×5-mg oral psilocybin capsules plus 3× placebo capsules • b. Psilocybin 25 mg: 5×5-mg oral psilocybin capsules • c. Placebo: 5× placebo capsules
Each 5-mg oral psilocybin capsule comprised 5 mg crystalline psilocybin in the form of Polymorph A, 12.5 mg of SMCC 50, 79.5 mg of SMCC 90, 1 mg sodium starch glycolate, 1 mg colloidal silicon dioxide, and 1 mg sodium stearyl fumarate
Adverse events: Throughout the course of the study, all AEs were monitored and recorded. Each AE was classified according to the following criteria: • i. […] Moderate: The AE produces some impairment of functioning, but is not hazardous to the subject's health. • iii. Severe: The AE produces significant impairment of functioning or incapacitation and is a definite hazard to the subject's health.
Selected Adverse Events of included: • (a) Euphoric mood • (b) Dissociative disorder • (c) Hallucination • (d) Psychotic disorder • (e) Cognitive disorder • (f) Disturbance in attention • (g) Altered mood • (h) Impairment of psychomotor skills • (i) Inappropriate affect • (j) Overdose • (k) Intentional product misuse • (l) Illusion
For example, drug-induced hepatitis that resolved without evidence of hepatic failure would not be considered life threatening even though drug-induced hepatitis can be fatal. • (c) Inpatient hospitalization or prolongation of existing hospitalization. • (d) Persistent or significant disability/incapacity. • (e) Congenital anomaly/birth defect in the offspring of a subject who received psilocybin. • (f) Other: Important medical events that may not result in death, be life-threatening, or require hospitalization, may be considered an SAE when, based upon appropriate medical judgment, they may jeopardize the subject and may require medical or surgical intervention to prevent one of the outcomes listed in this definition. […] Visits:
Visit 3 (V3): Drug Administration (Day 0): The subject was asked to eat a light breakfast at least two hours prior to coming to the clinic for study drug administration. On Day 0 (V3), the subject underwent the SSTS, had vital signs obtained, medications reviewed, AEs recorded and eligibility reviewed prior to being randomized to study drug. The study drug was administered to up to six subjects simultaneously in individual beds separated by a curtain. The subject was invited to put on eyeshades and headphones, lie down and listen to calming music for the rest of the session (six hours). The subject was supported 1:1 with a chaperone and supervised by the study psychiatrist and lead therapist.
Recording of adverse events and prior/concomitant medication was performed at each visit.
During administration of psilocybin, each subject received one on one support from a trained assisting therapist and each dosing session was supervised by a study psychiatrist and a lead therapist. […]

## CN(C)CCc1c[nH]c2cccc(OP(=O)(O)O)c12 [psilocybin]
10 mg
  Infections and infestations, worst severity Severe: N (%): 0
  Infections and infestations: Events: 4
  Investigations, worst severity Mild: Events: 2
  Investigations, worst severity Moderate: Events: 0
  Investigations, worst severity Moderate: N (%): 0
  Investigations, worst severity Severe: Events: 0
  Investigations, worst severity Severe: N (%): 0
  Investigations: Events: 2
  Mental fatigue: Events: 0
  Mental fatigue: N (%): 0
  Mood altered, worst severity Mild: Events: 2
  Mood altered, worst severity Moderate: Events: 8
  Mood altered, worst severity Severe: Events: 9
  Mood altered, worst severity Severe: N (%): 6 (20.0)
  Mood altered: Events: 23
  Musculoskeletal and connective tissue disorders, worst severity Mild: Events: 0
  Musculoskeletal and connective tissue disorders, worst severity Mild: N (%): 0
  Musculoskeletal and connective tissue disorders, worst severity Moderate: Events: 1
  Musculoskeletal and connective tissue disorders, worst severity Severe: Events: 0
  Musculoskeletal and connective tissue disorders, worst severity Severe: N (%): 0
  Musculoskeletal and connective tissue disorders: Events: 1
  Nausea: Events: 1
  Nervous system disorders, worst severity Mild: Events: 23
  Nervous system disorders, worst severity Moderate: Events: 8
  Nervous system disorders, worst severity Moderate: N (%): 6 (20.0)
  Nervous system disorders, worst severity Severe: Events: 0
  Nervous system disorders, worst severity Severe: N (%): 0
  Nervous system disorders: Events: 35
  Paraesthesia, worst severity Mild: Events: 4
  Paraesthesia, worst severity Moderate: Events: 0
  Paraesthesia, worst severity Moderate: N (%): 0
  Paraesthesia, worst severity Severe: Events: 0
  Paraesthesia, worst severity Severe: N (%): 0
  Paraesthesia: Events: 4
  Psychiatric disorders, worst severity Mild: Events: 6
  Psychiatric disorders, worst severity Moderate: Events: 29
  Psychiatric disorders, worst severity Severe: Events: 21
  Respiratory, thoracic and mediastinal disorders: Events: 0
  Respiratory, thoracic and mediastinal disorders: N (%): 0
  Somatic hallucination, worst severity Mild: Events: 1
  Somatic hallucination, worst severity Moderate: Events: 7
  Somatic hallucination, worst severity Severe: Events: 0
  Somatic hallucination, worst severity Severe: N (%): 0
  Somatic hallucination: Events: 8
  Tension headache, worst severity Mild: Events: 1
  Tension headache, worst severity Moderate: Events: 2
  Tension headache, worst severity Severe: Events: 0
  Tension headache, worst severity Severe: N (%): 0
  Tension headache: Events: 3
  Tension headache: N (%): 3 (10.0)
  Time perception altered, worst severity Mild: Events: 1
  Time perception altered, worst severity Moderate: Events: 1
  Time perception altered, worst severity Severe: Events: 0
  Time perception altered, worst severity Severe: N (%): 0
  Time perception altered: Events: 2
10 mg and 25 mg
  Incidence of Illusion, Hallucination (visual), Mood altered, Headache, Fatigue and Euphoric mood compared to placebo: higher
10 mg and 25 mg arms
  Majority of the severe TEAEs (system organ class): psychiatric disorders
10 mg and 25 mg, 12-week study
  Serious adverse events or adverse events that led to withdrawal: no serious adverse events or adverse events that led to withdrawal
10 mg psilocybin (n = 30)
  Reported 'Mood altered' events: Being less judgmental: 1
  Reported 'Mood altered' events: Calm: 0
  Reported 'Mood altered' events: Clarity of thought: 0
  Reported 'Mood altered' events: Contemplative state: 1
  Reported 'Mood altered' events: Feeling more moody/sensitive: 1
  Reported 'Mood altered' events: Feeling of adrenaline release: 0
  Reported 'Mood altered' events: Feeling rested: 1
  Reported 'Mood altered' events: Increased compassion: 0
  Reported 'Mood altered' events: Increased creativity: 0
  Reported 'Mood altered' events: Increased empathy: 2
  Reported 'Mood altered' events: Increased sense of connectedness: 0
  Reported 'Mood altered' events: Increased wit: 1
  Reported 'Mood altered' events: Introspection: 5
  Reported 'Mood altered' events: Laughter: 1
  Reported 'Mood altered' events: More socially upbeat: 0
  Reported 'Mood altered' events: Negative mood: 0
  Reported 'Mood altered' events: Reflections: 3
  Reported 'Mood altered' events: Saw themselves from a new perspective: 0
  Reported 'Mood altered' events: Sense of oneness: 4
  Reported 'Mood altered' events: Sense of openness: 1
  Reported 'Mood altered' events: Unusual appreciation of music: 0
10 mg, listed as Psilocybin
  Any TEAE: % of subjects: (96.7) %
25 mg
  AEs potentially related to study treatment, % of AEs in arm: 95.9%
  Affect lability, worst severity Mild: Events: 2
  Affect lability, worst severity Moderate: Events: 1
  Affect lability, worst severity Severe: Events: 0
  Affect lability, worst severity Severe: N (%): 0
  Affect lability: Events: 3
  Affect lability: N (%): 3 (10.0)
  Any Selected TEAE: % of subjects: (90.0) %
  Any Selected TEAE: N (%): 27
  Any TEAE leading to death: Events: 0
  Any TEAE leading to death: N (%): 0
  Any TEAE leading to study discontinuation: Events: 0
  Any TEAE leading to study discontinuation: N (%): 0
  Any TEAE related to study treatment: % of subjects: (96.7) %
  Any TEAE related to study treatment: N (%): 29
  Any TEAE, worst severity Mild: Events: 14
  Any TEAE, worst severity Mild: N (%): 3 (10.0)
  Any TEAE, worst severity Moderate: Events: 52
  Any TEAE, worst severity Severe: Events: 29
  Any TEAE: % of subjects: 96.7%
  Any serious TEAE related to study treatment: Events: 0
  Any serious TEAE related to study treatment: N (%): 0
  Any serious TEAE: Events: 0
  Any serious TEAE: N (%): 0

Reference: patent US11865126B2, “Method for treating anxiety disorders, headache disorders, and eating disorders with psilocybin” (priority 2019, dated 2024)
